Experiments:
[1] = tested on: advanced solid tumors; test: Antitumor activity: best overall response / unconfirmed objective response by investigator assessment; type: in vivo, human
Description: Tumor assessments were performed on Day 29 and every 8 weeks thereafter for the initial 12 cycles, regardless of any dose interruptions or dose delays, and then performed per local standard practice after completion of Cycle 12. […] Unconfirmed objective response by investigator assessment was defined as a complete (disappearance of all target lesions) or partial (at least 30% decrease in the sum of diameters of target lesions) response recorded from Cycle 1 Day 1 until disease progression, start of subsequent anticancer therapy, or death due to any cause. Given the exploratory nature of the efficacy endpoint, confirmation of response was not required. Duration of response, calculated as the time from first documentation of complete response or partial response to date of first documentation of objective progression or death, was only calculated for the subgroup of patients with an unconfirmed objective response. All patients who had received at least 1 dose of talazoparib were included in the safety and efficacy analysis sets. All treated patients with at least 1 PK concentration in the single-dose and/or multiple-dose PK part were included in the PK concentration analysis set, and all treated patients with at least 1 of the PK parameters of primary interest in the single-dose and/or multiple-dose PK part were included in the PK parameter analysis set. All patients in the PK parameter analysis set who completed both the single-dose PK and multiple-dose PK parts without major protocol deviations were included in the PK evaluable analysis set.

[2] = tested on: solid tumors; parameters: method as in PMID 34160752; details: molecularly unselected Japanese patients with solid tumors; cited from earlier work
[3] = parameters: method as in PMID 31489639; details: population PK model, 490 patients, cited from earlier work
[4] = parameters: method as in PMID 35907135; details: Japanese patients, cited from earlier work
[5] = parameters: method as in PMID 30110579; details: EMBRACA, cited from earlier work
[6] = Western and Japanese patients; cited from earlier work
[7] = 11 patients with measurable disease at baseline
[8] = patients with measurable disease N=11

## Cn1ncnc1[C@H]1c2n[nH]c(=O)c3cc(F)cc(c23)N[C@@H]1c1ccc(F)cc1 [talazoparib]
[1]; [7]
  Patients progressed by data cut-off: 54.5%
  Patients with stable disease: 36.4%
[1]; 11 patients with measurable disease at baseline, 95% CI 0.2–41.3
  ORR (best overall response of partial response): 9.1%
[1]; 15 treated patients
  Patients with non-complete response/non-progressive disease: 6.7%
  Patients with partial response: 6.7%
  Patients with stable disease: 26.7%
[1]; 15 treated patients, 95% CI 0.2–31.9
  Unconfirmed objective response rate (investigator-assessed): 6.7%
[1]; 15 treated patients, 95% CI 16.3–67.7
  Disease control based on best overall response: 40.0%
[1]; 95% CI 16.7–76.6
  Disease control rate: 45.5%
[1]; efficacy analysis set N=15
  Best overall response: Complete response: 0 n (%)
  Best overall response: Non-complete response/non-progressive disease: 1 (6.7) n (%)
  Best overall response: Not evaluable: 2 (13.3) n (%)
  Best overall response: Partial response: 1 (6.7) n (%)
  Best overall response: Progressive disease: 7 (46.7) n (%)
  Best overall response: Stable disease: 4 (26.7) n (%)
[1]; efficacy analysis set N=15, CR, PR, SD and non-CR/non-PD
  Disease control: 6 (40.0 [16.3–67.7]) n (%, [95% CI])
[1]; efficacy analysis set N=15, complete and partial responses, Clopper-Pearson CI
  Objective response: 1 (6.7 [0.2–31.9]) n (%, [95% CI])
[1]; [8]
  Best overall response: Complete response: 0 n (%)
  Best overall response: Non-complete response/non-progressive disease: 0 n (%)
  Best overall response: Not evaluable: 0 n (%)
  Best overall response: Partial response: 1 (9.1) n (%)
  Best overall response: Progressive disease: 6 (54.5) n (%)
  Best overall response: Stable disease: 4 (36.4) n (%)
  Disease control: 5 (45.5 [16.7–76.6]) n (%, [95% CI])
[1]; the one responder, measurable disease at baseline
  Duration of response: 114 days
[2]
  Overall disease control rate: 44.4%
[3]; 4.79% interpatient variability
  Apparent volume of distribution of the central compartment: 162 L
[3]; 27.0% interpatient variability
  Mean apparent oral clearance: 6.36 L/h
[4]; 10/19
  Patients with grade 3–4 treatment-related AEs: 52.6%
[4]; 13/19
  Treatment-related AE: anemia: 68.4%
[4]
  Grade 5 AEs: no grade 5 AEs
  Patients with treatment-related AEs: all patients experienced treatment-related AEs
[5]; 42/286
  Grade 3–4 TEAE: thrombocytopenia: 15%
[5]; 60/286
  Grade 3–4 TEAE: neutropenia: 21%
[5]; 112/286
  Grade 3–4 TEAE: anemia: 39%
[6]
  Maximum tolerated dose of monotherapy: 1 mg QD

From PMC10290043, “Pharmacokinetics, safety, and antitumor activity of talazoparib monotherapy in Chinese patients with advanced solid tumors” (Investigational New Drugs, 2023)
